Assay results from PMC6941357, “An in vitro toolbox to accelerate anti-malarial drug discovery and development” (Malaria Journal, 2020).
≈ marks a conversion by molar mass, not a printed value. Where “and” joins values, the source holds several entries; their conditions need not be identical. Identical values can stand only once. Like-named read-outs stand apart in the source and are kept apart here.

How the values were obtained:
[1] = Ionization constants by potentiometric titration; format: physicochemical; settings: basic pKa (B), mean ± SD, n = 3 titrations
Description: The autotitrator was controlled by Tiamo software (Version 1.3). pH measurements were conducted using a Metrohm LL Micro glass electrode which was calibrated on the day of use with calibration standards at pH 2, 4, 7 and 10. All reagents were standardized (directly or indirectly) against potassium hydrogen phthalate (Sigma-Aldrich, A.C.S. Acidimetric Standard). Titrant solutions were protected from carbon dioxide absorption by flushing with nitrogen before sealing or by the incorporation of a drying tube filled with self-indicating soda lime into the titration reaction vessel set-up.
Aliquots were introduced directly into the titration vessel and diluted 1:10 with water (typical final compound concentration of 0.5 mM).

[2] = Octanol/pH 7.4 buffer partition coefficient, shake flask; settings: for logD: pH 7.4
Description: Partition coefficients between octanol and pH 7.4 buffer were measured using a shake flask method. A stock solution of test compound in octanol was prepared at a concentration between 3 and 30 mg/mL based on the expected partition coefficient value. This stock solution was then diluted 3- and 10-fold with octanol and used to prepare the octanol phase for the partitioning experiments. Two different dilutions were used to confirm that there were no saturation effects. Phosphate buffered saline was prepared by combining 67 mM disodium hydrogen orthophosphate and sodium dihydrogen orthophosphate (both prepared in 43 mM NaCl) to a final pH of 7.4.
Partitioning experiments were conducted by mixing equal volumes of the octanol (containing test compound) and aqueous phases and placing on a vibrating plate mixer in an incubator at 37 °C. […] An aliquot of the aqueous phase was carefully removed and centrifuged again to ensure no contamination from the octanol phase before sampling in duplicate and diluting with aqueous methanol for analysis. Diluted samples were analysed by LC–MS along with calibration standards (Additional file 1: Table S2) and partition coefficients were calculated from the ratio of the mean octanol to buffer concentration after accounting for the dilution factors. The partitioning results for the two time points were used to confirm that the partitioning experiment had reached equilibrium.

[3] = Solubility in biorelevant media
Description: Solubility of each active pharmaceutical ingredient was evaluated at 37 °C in pH 7.4 phosphate buffered saline (prepared as described for the partitioning experiments), fasted (FaSSIF-V2) and fed (FeSSIF-V2) state simulated intestinal fluids and fasted state simulated gastric fluid (FaSSGF) as described by Jantratid et al.. […] Samples were vortexed and placed in a 37 °C incubator on an orbital mixer (IKA® VXR basic Vibrax® orbital mixer) set at 600 rpm. Sampling times were 1 h for FaSSGF or 5–6 h for FaSSIF-V2, FeSSIF-V2, and PBS. These times were used to reflect the maximal likely residence times within the stomach and small intestine, respectively. Sampling was carried out by centrifuging each sample at 10,000 rpm for 3 min, transferring 300 µL aliquots into fresh Eppendorf tubes and centrifuging these tubes again at 10,000 rpm for 3 min. Triplicate aliquots of the supernatant were then removed and diluted 1:2 in 50% aqueous methanol and then again in 50% aqueous acetonitrile to be within the analytical concentration range. Samples were analysed by LC–MS along with calibration standards (Additional file 1: Table S2).

Caco-2 cell monolayers [4] = experiment: Bidirectional permeability across Caco-2 cell monolayers; settings: matrix: human plasma, corrected for fu
Description: (§1) Bidirectional permeability was assessed across Caco-2 cell monolayers as described previously. Briefly, permeability experiments were performed using either aqueous transport buffer (pH 7.4 Hanks balanced salt solution containing 20 mM HEPES) or human plasma (Australian Red Cross Blood Service) in both the apical and basolateral chambers. […] The final DMSO concentration in the donor solution was 0.1% v/v.
(§2) Samples from the donor chamber were taken at the start and end of the experiment. […] Donor and acceptor samples were stored frozen at − 80 °C until analysis by LC–MS (Additional file 1: Table S2) with sample preparation as described previously. The mass balance and apparent permeability coefficient (Papp) were calculated as previously described.
(§3) Where human plasma was used as the transport medium, Papp values were calculated as shown above, with correction for the fraction unbound (fu) in the donor solution Cdonorinitial×fu with fu determined at a similar concentration to that used in the transport experiment. The apparent flux of lucifer yellow was based on an endpoint measurement assuming no lag time. The efflux ratio was calculated as the ratio of the mean B–A to A–B Papp values.

physchem = settings: for An (absorption number): Peff × tres/R, minimum 1; for Predicted human Peff: from Caco-2 Papp via calibration plot
From the text: Predicted Peff values were obtained from a calibration plot of literature Peff values vs measured Caco-2 Papp using either buffer or plasma as the transport medium (see Results section).

[5] = Plasma protein binding via ultracentrifugation (UC); format: in vitro ADME, human; settings: human, neat pooled plasma, pH 7.4; ultracentrifugation, neat plasma; read-out: Fraction unbound, human plasma
Description: (§4) Pooled human plasma (n = 3–4 donors) was obtained by centrifugation of blood (collected by the Australian Red Cross Blood Service, Melbourne, Australia or the Volunteer Blood Donor Registry, Clinical Translation Centre, Walter & Eliza Hall Institute of Medical Research, Parkville, Australia), or sourcing pooled plasma directly from commercial sources (Innovative Research Inc, MI) and stored frozen at − 80 °C.
(§5) An ultracentrifugation method adapted from a previous publication was initially used to assess plasma protein binding and binding in the other media. […] Additional ultracentrifuge tubes containing spiked matrix were maintained at 37 °C, 5% or 10% CO2 or normal atmosphere conditions, with aliquots being taken within 0.5 h of the start and at the end of ultracentrifugation to serve as controls for the assessment of stability and to obtain a measure of the total concentration (Ctotal). Following ultracentrifugation, the pH was checked and an aliquot of protein-free supernate was taken from each ultracentrifuge tube for determination of the unbound concentration (Cunbound).
(§6) Total matrix and protein free samples were analysed using a matrix matching approach whereby each sample was mixed in a 1:1 ratio with the opposite blank medium (i.e. blank total matrix or blank protein free buffer). For example, plasma samples were mixed with blank pH 7.4 buffer whereas plasma supernatant samples were mixed with blank plasma. Each of the sample sets were then assayed against a common calibration curve prepared in a 1:1 mixture of total matrix and protein free pH 7.4 buffer. […] The standard deviation for fu was calculated using the propagation of errors approach as described previously. The potential for compound degradation was assessed by comparing the average value for Ctotal at the start and end of the experiment.

[6] = Plasma protein binding via rapid equilibrium dialysis (RED), 10% plasma; format: in vitro ADME, human; settings: human, 10% pooled plasma (diluted 1:10), pH 7.4, RED, 10% plasma corrected for dilution, 6 h dialysis
Description: as §4
Plasma was diluted 1:10 with pH 7.4 phosphate buffer (prepared by mixing 0.1 M sodium dihydrogen phosphate and 0.1 M disodium hydrogen phosphate (both containing 0.04 M NaCl) to pH 7.4) and spiked with compound to achieve a total measured concentration of ~ 1000–3000 ng/mL. Diluted plasma was vortex mixed briefly and aliquots (n = 3–4) were transferred to RED (Thermo Fisher Scientific, Waltham, MA) units that were placed at 37 °C under ambient atmosphere on a plate shaker. […] At the end of the dialysis period, samples were removed from both the donor and dialysate chambers of the RED units. […] Fraction unbound values were calculated for each individual RED unit and the mean and SD calculated for n = 3–4 replicates.
Briefly, the RED device was exposed for two 30 min periods and one overnight period to fresh solutions of compound prepared in pH 7.4 buffer at approximately 10% of the total dialysis concentration. Following the preincubations, solutions were removed from the RED device and discarded. […] Samples were removed and analysed as described above.
For binding assessments using 10% plasma, the unbound fraction (fu) in neat plasma was calculated using the average values for Ctotal and Cunbound and Eq.

[7] = target: T1, Albumax medium (lipid rich bovine serum albumin) (Bos taurus, UniProt P02769); experiment: Binding in Albumax medium via ultracentrifugation; format: in vitro ADME; settings: bovine, Albumax medium, pH 7.4
T1 construct: purchased Gibco, Thermo Fisher Scientific
Description: as §5, §6

[8] = Binding to human liver microsomes via ultracentrifugation; format: in vitro ADME; settings: human, liver microsomes, pH 7.4, 0.4 mg/mL protein, read-out: Fraction unbound, HLM
Description: A suspension of human liver microsomes (HLM, XenoTech LLC, Lenexa, KS, USA) was prepared in 0.1 M phosphate buffer (pH 7.4) at a protein concentration of 0.4 mg/mL immediately prior to the experiment.
as §5, §6

in vitro = settings: human, microsomes
Description: (§7) The metabolic stability assay was adapted from a previously published method. […] Reactions were quenched at 2, 5, 15, 30 and 60 min by the addition of acetonitrile containing 150 ng/mL diazepam as internal standard. Control samples (containing no cofactor) were included (quenched at 2, 30 and 60 min) to monitor degradation in the absence of cofactor. Concentrations were determined by LC–MS (Additional file 1: Table S2) by comparison to the response for a single point calibration standard prepared in quenched microsomal matrix.
(§8) Test compound concentration versus time data were fit using an exponential decay function to determine the first-order rate constant for substrate depletion. Where deviation from first-order kinetics was evident, only the initial linear portion of the logarithmic profile was utilized to determine the initial degradation rate constant (k, min^−1). Each substrate depletion rate constant was then used to calculate the in vitro intrinsic clearance value (CLint, in vitro, µL/min/mg protein) using Eq.
(§9) Unbound in vitro CLint values were obtained by dividing the measured CLint by the measured fu in microsomes.

human liver microsomes [9] = experiment: in vitro; settings: human, 1 µM, pH 7.4
Description: as §7, §8, §9

CYP3A4 = CYP3A4 (Homo sapiens, UniProt P08684); experiment: Cytochrome P450 inhibition in human liver microsomes; settings: highest concentration tested 20 µM
Description: The CYP inhibition assay was based on a previous publication with minor modifications. The method uses human liver microsomes and a substrate-specific interaction approach which relies on the formation of a metabolite that is mediated by a specific CYP isoform. The specific CYP-mediated metabolic pathways, substrates, substrate Km values, positive control inhibitors and specific incubation conditions are shown in Additional file 1: Table S4. […] Samples were quenched by the addition of ice-cold acetonitrile containing diazepam as the analytical internal standard. Concentrations of the substrate-specific metabolites in quenched samples were determined by LC–MS (Additional file 1: Table S5) relative to calibration standards prepared in quenched microsomal matrix.
The inhibitory effect of each test compound and positive control inhibitor was based on the reduction in the formation of the specific CYP-mediated metabolite (represented as percent inhibition of enzyme activity) relative to metabolite formation in the absence of inhibitor (i.e. control for maximal enzyme activity). […] The Km was determined under the same incubation conditions by measuring the rate of metabolite formation (pmol/min/mg protein) as a function of substrate concentration (Additional file 1: Table S4).

Caco-2 cell monolayers [10] = settings: cited from earlier work
human plasma = settings: methods UF, ED, EP or not described per compound, ref [6]–[22] of Additional file 1; cited from earlier work
human liver microsomes [11] = settings: microsomal protein 0.5 mg/mL; ref [23]–[28] of Additional file 1; cited from earlier work
[12] = Bidirectional permeability across Caco-2 cell monolayers; settings: human
Description: as §1, §2, §3

[13] = human; cited from earlier work
[14] = matrix: human plasma, corrected for fu

Sequence of CYP3A4 (P08684 whole entry, canonical isoform): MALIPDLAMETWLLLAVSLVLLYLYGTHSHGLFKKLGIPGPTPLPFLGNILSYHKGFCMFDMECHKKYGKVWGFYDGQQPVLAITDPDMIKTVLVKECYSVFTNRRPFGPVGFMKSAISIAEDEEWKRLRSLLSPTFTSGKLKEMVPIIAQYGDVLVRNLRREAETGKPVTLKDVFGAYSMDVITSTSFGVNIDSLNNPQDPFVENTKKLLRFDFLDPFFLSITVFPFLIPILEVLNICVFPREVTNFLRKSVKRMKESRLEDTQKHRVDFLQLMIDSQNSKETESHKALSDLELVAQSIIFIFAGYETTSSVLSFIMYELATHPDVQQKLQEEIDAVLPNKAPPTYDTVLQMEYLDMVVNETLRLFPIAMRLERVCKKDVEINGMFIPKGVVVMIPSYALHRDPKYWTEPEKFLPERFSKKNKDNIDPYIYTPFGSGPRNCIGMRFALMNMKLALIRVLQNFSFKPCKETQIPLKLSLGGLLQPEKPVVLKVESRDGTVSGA
T1 sequence (P02769 25-607): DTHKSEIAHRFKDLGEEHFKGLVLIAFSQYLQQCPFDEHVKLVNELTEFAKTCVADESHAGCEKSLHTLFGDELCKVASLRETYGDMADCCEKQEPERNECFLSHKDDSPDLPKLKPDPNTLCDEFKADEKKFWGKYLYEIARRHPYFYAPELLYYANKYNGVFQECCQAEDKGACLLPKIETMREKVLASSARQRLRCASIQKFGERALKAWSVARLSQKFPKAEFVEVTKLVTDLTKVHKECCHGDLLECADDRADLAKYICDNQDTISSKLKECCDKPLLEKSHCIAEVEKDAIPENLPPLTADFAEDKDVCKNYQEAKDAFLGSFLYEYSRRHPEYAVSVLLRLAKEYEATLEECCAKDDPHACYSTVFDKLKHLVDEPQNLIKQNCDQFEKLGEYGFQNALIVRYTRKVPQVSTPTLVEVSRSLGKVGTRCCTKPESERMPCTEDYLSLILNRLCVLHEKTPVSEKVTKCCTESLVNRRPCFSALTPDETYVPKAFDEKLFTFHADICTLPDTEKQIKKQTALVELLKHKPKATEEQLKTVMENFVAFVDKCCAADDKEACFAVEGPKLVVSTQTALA

## CC1(C)CC(O)(COc2ccc(C3CCC4(CC3)OOC3(O4)C4CC5CC(C4)CC3C5)cc2)CC(C)(C)N1 (stereo not drawn) [MMV052]
[1]
  Measured pKa: 8.3 ± 0.06 (B)
[2]; octanol/pH 7.4 buffer, shake flask, 37 °C
  Measured Log D7.4: 5.40
[3]; 37 °C
  Solubility FaSSGF (1 h): 13.0 µg/mL and 24.7 µM
  Solubility FaSSIF-V2 (5–6 h): 1140 µg/mL and 2170 µM
  Solubility FeSSIF-V2 (5–6 h): > 2000 µg/mL and > 3800 µM
  Solubility PBS7.4 (5–6 h): 49.6 µg/mL and 94.3 µM
Caco-2 cell monolayers [4]
  A–B Papp: > 300 10^−6 cm/s
  B–A Papp: > 300 10^−6 cm/s
physchem
  SLAD: 7580 mg
  An (absorption number): 13
  Predicted human Peff: 11 10^−4 cm/s
physchem; based on measured FaSSIF solubility
  Ssi (estimated solubility in the small intestine): 1140 µg/mL

## CCN(CC)Cc1cc(Nc2ccnc3cc(Cl)ccc23)ccc1O [Amodiaquine]
[1]; aqueous solution (DMSO stock diluted 1:10 with water), read-out: Measured pKa
  pKa: 7 ± 0.02
[2]; octanol/pH 7.4 buffer
  logD: 2.95
[5]
  fraction unbound at […]: 0.089 ± 0.008
[6]
  fraction unbound at 6 h: 0.086
[7]
  fraction unbound at […], 500 ng/mL: 0.67 ± 0.033
[8]
  fraction unbound at […]: 0.91 ± 0.094
In vitro; pH 7.4, HLM CLint
  microsomal CLint at 1 µM: 308 µL/min/mg
Human liver microsomes [9]
  Unbound CLint: 339 µL/min/mg
CYP3A4; CYP3A4 (midaz) IC50, human liver microsomes, CYP3A4 (midaz)
  IC50: > 20 µM
CYP3A4; CYP3A4 (test) IC50, human liver microsomes, CYP3A4 (test)
  IC50: > 20 µM
Caco-2 cell monolayers [10]; Caco-2, ref [33], [35] of Additional file 1
  Literature ER: 1.3
Caco-2 cell monolayers [10]; Caco-2 A-B, ref [33]–[35] of Additional file 1
  Literature Papp: 16.0 ± 1.1 10-6 cm/sec
Caco-2 cell monolayers [10]; [14]
  A–B Papp: 90 ± 8.3 10^−6 cm/s
  B–A Papp: 63 ± 9.6 10^−6 cm/s
Human plasma
  Literature fu: < 0.1

## Cc1ncc2n1-c1ccc(Cl)cc1C(c1ccccc1F)=NC2 [midazolam]
In vitro; pH 7.4, Mean CLint, control compounds, mean (S.D.)
  microsomal CLint at 1 µM: 272 µL/min/mg
In vitro; pH 7.4, Range HLM CLint, control compounds, 6–21 independent measurements, 0.4 mg/mL
  microsomal CLint at 1 µM: 240 to 300 µL/min/mg
Human liver microsomes [11]
  Literature CLint: 353 µL/min/mg and 178 µL/min/mg and 287 µL/min/mg

## c1cc([C@H]2CC[C@]3(CC2)OO[C@]2(O3)C3CC4CC(C3)CC2C4)ccc1OCCN1CCOCC1 [OZ439]
[2]; octanol/pH 7.4 phosphate buffered saline
  logD: > 5
[3]; FaSSGF
  FaSSGF solubility: 79 µg/mL
[3]; FaSSGF, 37 °C, fassgf or other biorelevant, thermodynamic from solid
  solubility at 1 h: 79 µg/mL and 168 µM
[3]; FaSSIF
  FaSSIF solubility: 40.6 µg/mL
[3]; FaSSIF-V2, 37 °C, fassif, thermodynamic from solid
  solubility: 40.6 µg/mL and 87 µM
[3]; FeSSIF-V2, 37 °C, fessif, thermodynamic from solid
  solubility: 526 µg/mL and 1120 µM
[3]; phosphate buffered saline pH 7.4, 37 °C, pH 7.4, aqueous buffer, thermodynamic from solid
  solubility: 0.085 µg/mL and 0.181 µM
[12]; Caco-2
  Papp B→A: > 300 ×10⁻⁶ cm/s
[12]; Caco-2, A–B Papp, matrix: human plasma, corrected for fu
  Papp A→B: > 300 ×10⁻⁶ cm/s
physchem; FaSSIF
  solubility: 40.6 µg/mL (≈ 86.5 µM)
physchem
  An (absorption number): 13
  Predicted human Peff: 11 10^−4 cm/s
physchem; Ssi × V (500 mL) × Mp
  SLAD: 270 mg
[13]
  Food effect: yes
  V/F: 1570 L
